Among the data in PubChem BioAssay AID296 (DTP/NCI, 2004) are T/C values, retold here.

Where “and” joins values, the source holds several entries; their conditions need not be identical. Equal entries are not always repeated. Results filed as inconclusive are left out.

The test system of the test is MX-1 breast xenograft, nude mice, tumor weight T/C. Briefly: NCI In Vivo Anticancer Drug Screen. Data for tumor model Human Mammary Carcinoma MX-1 Xenograft (intrarenal inoculation) in NU/NU Swiss (nude) mice. To be noted: endpoint: mean tumor weight change, higher = larger tumour. In outline: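 Activity is given as a ratio, with each measurement in the compound-treated arm divided by the matching measurement in vehicle-dosed controls. Tumour size or survival serves as the measured parameter.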
Background: Xenograft models place foreign cells or tissue in a host animal.

[1] abbreviates: dose: 50.0 mg/kg/injection, schedule: Q01DX010 (sc), vehicle: water.
The mark [2] stands for this setting: dose: 100.0 mg/kg/injection, schedule: Q01DX010 (sc), vehicle: water.
[3] abbreviates: dose: 6.25 mg/kg/injection, schedule: Q01DX010 (sc), vehicle: saline with Tween-80.
[4] abbreviates: dose: 12.5 mg/kg/injection, schedule: Q01DX010 (sc), vehicle: saline with Tween-80.
Setting [5] is: dose: 300.0 mg/kg/injection, schedule: Q04DX003 (sc), vehicle: saline with Tween-80.
Setting [6] is: dose: 600.0 mg/kg/injection, schedule: Q04DX003 (sc), vehicle: saline with Tween-80.
Where [7] appears, read: dose: 1200.0 mg/kg/injection, schedule: Q04DX003 (sc), vehicle: saline with Tween-80.
[8] abbreviates: dose: 2400.0 mg/kg/injection, schedule: Q04DX003 (sc), vehicle: saline with Tween-80.
The mark [9] stands for this setting: dose: 0.25 mg/kg/injection, schedule: Q01DX010 (sc), vehicle: saline.
Setting [10] is: dose: 0.5 mg/kg/injection, schedule: Q01DX010 (sc), vehicle: saline.
Setting [11] is: dose: 1.0 mg/kg/injection, schedule: Q01DX010 (sc), vehicle: saline.
The mark [12] stands for this setting: dose: 25.0 mg/kg/injection, schedule: Q01DX010 (sc), vehicle: saline.
Setting [13] is: dose: 50.0 mg/kg/injection, schedule: Q01DX010 (sc), vehicle: saline.
Where [14] appears, read: dose: 75.0 mg/kg/injection, schedule: Q04DX003 (sc), vehicle: saline.
Where [15] appears, read: dose: 100.0 mg/kg/injection, schedule: Q01DX010 (sc), vehicle: saline.
Where [16] appears, read: dose: 200.0 mg/kg/injection, schedule: Q01DX010 (sc), vehicle: saline.

With `CCCCCCCC(=O)N/N=C(\CO)[C@]1(O)Cc2c(O)c3c(c(O)c2[C@@H](OC2CC(N)C(O)C(C)O2)C1)C(=O)c1c(OC)cccc1C3=O` (some centres undefined), the T/C runs as follows: (dose: 25.0 mg/kg/injection, schedule: Q01DX010 (sc), vehicle: water) 227 % of control; under setting [1], 230 % of control; under setting [2], 370 % of control.

As for `O=NN(CCCl)C(=O)NC1CCC(=O)NC1=O` (centres undefined), the T/C was 100 % of control (dose: 1.56 mg/kg/injection, schedule: Q01DX010 (sc), vehicle: saline with Tween-80); 69 % of control and 72 % of control (dose: 3.13 mg/kg/injection, schedule: Q01DX010 (sc), vehicle: saline with Tween-80); 2 % of control and 15 % of control and 25 % of control under setting [3]; -87 % of control and -84 % of control under setting [4].

Consider `O=C1NC(=O)/C(=C/C=C/c2ccccc2)S1`, for which the T/C was 111 % of control under setting [5], 98 % of control under setting [6], 84 % of control under setting [7] and 66 % of control under setting [8].

`COc1nc(=O)n(C2C=CC(=O)O2)cc1F` (centres undefined): the T/C (dose: 75.0 mg/kg/injection, schedule: Q04DX003 (sc), vehicle: Klucel (hydroxypropylcellulose) (HPC)) is 116 % of control.

Consider `CC(=O)Oc1ccccc1O`, for which the T/C is, setting by setting: (dose: 75.0 mg/kg/injection, schedule: Q04DX003 (sc), vehicle: saline + Tween-80 + alcohol) 89 % of control; (dose: 150.0 mg/kg/injection, schedule: Q04DX003 (sc), vehicle: saline + Tween-80 + alcohol) 117 % of control; (dose: 600.0 mg/kg/injection, schedule: Q04DX003 (sc), vehicle: saline + Tween-80 + alcohol) 68 % of control.

For the compound `CCCC(=O)Oc1ccc(/C=N/NC(N)=S)nc1`, the T/C reads like this: (dose: 50.0 mg/kg/injection, schedule: Q01DX010 (sc), vehicle: saline with Tween-80) 101 % of control; (dose: 200.0 mg/kg/injection, schedule: Q01DX010 (sc), vehicle: saline with Tween-80) 113 % of control.

`CCN1C=C/C(=C\C=C/c2cc[n+](CC)c3ccccc23)c2ccccc21`: the T/C under setting [9] was 111 % of control, the T/C under setting [10] is 173 % of control and the T/C under setting [11] is 82 % of control.

Regarding `ClCC[N+]12CC[N+](CCCl)(CC1)C2`, the T/C is 106 % of control (dose: 3.12 mg/kg/injection, schedule: Q01DX010 (sc), vehicle: saline with Tween-80); 69 % of control under setting [3]; 108 % of control under setting [4]; 96 % of control (dose: 25.0 mg/kg/injection, schedule: Q01DX010 (sc), vehicle: saline with Tween-80); 39 % of control and 57 % of control under setting [1]; 51 % of control (dose: 75.0 mg/kg/injection, schedule: Q04DX003 (sc), vehicle: water). Besides, the T/C under setting [2] is 7 % of control and 13 % of control; the T/C (dose: 135.0 mg/kg/injection, schedule: Q04DX003 (sc), vehicle: water) was 45 % of control and 63 % of control; the T/C (dose: 150.0 mg/kg/injection, schedule: Q01DX010 (sc), vehicle: water) is 15 % of control; the T/C (dose: 150.0 mg/kg/injection, schedule: Q04DX003 (sc), vehicle: water) is 32 % of control; the T/C (dose: 200.0 mg/kg/injection, schedule: Q01DX010 (sc), vehicle: water) was -36 % of control and -32 % of control; the T/C (dose: 400.0 mg/kg/injection, schedule: Q01DX010 (sc), vehicle: saline with Tween-80) is 5 % of control. Further, the T/C (dose: 450.0 mg/kg/injection, schedule: Q04DX003 (sc), vehicle: water) is 12 % of control and 27 % of control.

Turning to `NC1=NCN(C2OC(CO)C(O)C2O)C(=O)N1` (centres undefined), the T/C (dose: 12.5 mg/kg/injection, schedule: Q01DX010 (sc), vehicle: saline) was 86 % of control; the T/C under setting [12] is 32 % of control and 42 % of control; the T/C (dose: 25.0 mg/kg/injection, schedule: Q04DX003 (sc), vehicle: saline) was 34 % of control; the T/C under setting [13] was 3 % of control and 4 % of control; the T/C under setting [14] was 55 % of control; the T/C under setting [15] is 6 % of control. Moreover, the T/C was 14 % of control and 30 % of control (dose: 100.0 mg/kg/injection, schedule: Q04DX003 (sc), vehicle: saline); 8 % of control (dose: 200.0 mg/kg/injection, schedule: Q04DX003 (sc), vehicle: saline); 2 % of control (dose: 400.0 mg/kg/injection, schedule: Q04DX003 (sc), vehicle: saline).

As for `Nc1cc2[nH]cnc2c(=O)[nH]1`, the T/C runs as follows: under setting [12], 46 % of control; under setting [13], -36 % of control; (dose: 50.0 mg/kg/injection, schedule: Q01DX010 (sc), vehicle: suspension in saline) 9 % of control; (dose: 50.0 mg/kg/injection, schedule: Q04DX003 (sc), vehicle: suspension in saline) 95 % of control; under setting [15], -25 % of control and -11 % of control; (dose: 100.0 mg/kg/injection, schedule: Q01DX010 (sc), vehicle: suspension in saline) -28 % of control. For the same compound, the T/C (dose: 100.0 mg/kg/injection, schedule: Q04DX003 (sc), vehicle: suspension in saline) was 83 % of control and 100 % of control; the T/C under setting [16] was -31 % of control; the T/C (dose: 200.0 mg/kg/injection, schedule: Q01DX010 (sc), vehicle: suspension in saline) was -89 % of control; the T/C (dose: 200.0 mg/kg/injection, schedule: Q04DX003 (sc), vehicle: suspension in saline) is 8 % of control and 31 % of control; the T/C (dose: 400.0 mg/kg/injection, schedule: Q04DX003 (sc), vehicle: suspension in saline) was 12 % of control and 18 % of control; the T/C (dose: 800.0 mg/kg/injection, schedule: Q04DX003 (sc), vehicle: suspension in saline) is 8 % of control.

Turning to `N#Cc1c(-c2ccc(F)cc2)c(-c2ccc(F)cc2)nn(CCO)c1=O`, the T/C by setting is: (dose: 100.0 mg/kg/injection, schedule: Q04DX003 (ip), vehicle: distilled water + Tween-80) 101 % of control; (dose: 200.0 mg/kg/injection, schedule: Q04DX003 (ip), vehicle: distilled water + Tween-80) 80 % of control.

On to `C[N+](C)(C)c1ncnc2c1ncn2C1CCCO1` (centres undefined), for which the T/C was 83 % of control under setting [9]; 112 % of control under setting [10]; 50 % of control under setting [11]; 163 % of control (dose: 2.0 mg/kg/injection, schedule: Q01DX010 (sc), vehicle: saline).

`COc1cc2cc3c4cc(OC)c(OC)cc4cc[n+]3c(C)c2cc1OC` (tested in a mixture with another compound): the T/C was 79 % of control under setting [14] and 60 % of control (dose: 150.0 mg/kg/injection, schedule: Q04DX003 (sc), vehicle: saline).

As to `COc1cccc2c1C(=O)c1c(O)c3c(c(O)c1C2=O)C[C@@](O)(/C(C)=N/NC(=O)c1cccc([N+](=O)[O-])c1)C[C@@H]3OC1CC(N)C(O)C(C)O1` (some centres undefined), the T/C (dose: 4.0 mg/kg/injection, schedule: Q01DX010 (sc), vehicle: water) was 89 % of control; the T/C (dose: 8.0 mg/kg/injection, schedule: Q01DX010 (sc), vehicle: water) was 43 % of control; the T/C (dose: 16.0 mg/kg/injection, schedule: Q01DX010 (sc), vehicle: water) was 104 % of control.

Take `[I][Hg][CH2]C1COC([CH2][Hg][I])CO1` (centres undefined): the T/C reads like this: under setting [5], 86 % of control; under setting [6], 77 % of control; under setting [7], 115 % of control; under setting [8], 82 % of control.

As for `O/N=C/c1ccccc1O.O/N=C/c1ccccc1O.[Cu]`, the T/C under setting [5] is 81 % of control, the T/C under setting [6] was 72 % of control, the T/C under setting [7] was 60 % of control and the T/C under setting [8] was 103 % of control.

Take `Cc1cn(C2CC3[O][Sn]([c]4ccccc4)([c]4ccccc4)[O]CC3O2)c(=O)[nH]c1=O` (centres undefined): the T/C is, setting by setting: under setting [12], 93 % of control; under setting [15], 93 % of control; under setting [16], 115 % of control; (dose: 600.0 mg/kg/injection, schedule: Q04DX003 (sc), vehicle: saline) 86 % of control; (dose: 1200.0 mg/kg/injection, schedule: Q04DX003 (sc), vehicle: saline) 107 % of control; (dose: 2400.0 mg/kg/injection, schedule: Q04DX003 (sc), vehicle: saline) 64 % of control.
